From BigSolDB 2.1

Structure (SMILES): COc1ccc2[nH]cc(CCNC(C)=O)c2c1
- solubility (mole fraction) (in ethanol, 278.15 K): 0.00853
- solubility (mole fraction) (in ethanol, 283.15 K): 0.0113
- solubility (mole fraction) (in ethanol, 288.15 K): 0.0151
- solubility (mole fraction) (in ethanol, 293.15 K): 0.02
- solubility (mole fraction) (in ethanol, 298.15 K): 0.0254
- solubility (mole fraction) (in ethanol, 303.15 K): 0.032
- solubility (mole fraction) (in ethanol, 308.15 K): 0.0406
- solubility (mole fraction) (in ethanol, 313.15 K): 0.0527
- solubility (mole fraction) (in ethanol, 318.15 K): 0.0665
- solubility (mole fraction) (in ethanol, 323.15 K): 0.0844
- solubility (mole fraction) (in isobutanol, 278.15 K): 0.00406
- solubility (mole fraction) (in isobutanol, 283.15 K): 0.00538
- solubility (mole fraction) (in isobutanol, 288.15 K): 0.0073
- solubility (mole fraction) (in isobutanol, 293.15 K): 0.00972
- solubility (mole fraction) (in isobutanol, 298.15 K): 0.0127
- solubility (mole fraction) (in isobutanol, 303.15 K): 0.0167
- solubility (mole fraction) (in isobutanol, 308.15 K): 0.0212
- solubility (mole fraction) (in isobutanol, 313.15 K): 0.0276
- solubility (mole fraction) (in isobutanol, 318.15 K): 0.0352
- solubility (mole fraction) (in isobutanol, 323.15 K): 0.0441
- solubility (mole fraction) (in methanol, 278.15 K): 0.0116
- solubility (mole fraction) (in methanol, 283.15 K): 0.0158
- solubility (mole fraction) (in methanol, 288.15 K): 0.0211
- solubility (mole fraction) (in methanol, 293.15 K): 0.0282
- solubility (mole fraction) (in methanol, 298.15 K): 0.0357
- solubility (mole fraction) (in methanol, 303.15 K): 0.0462
- solubility (mole fraction) (in methanol, 308.15 K): 0.0594
- solubility (mole fraction) (in methanol, 313.15 K): 0.0757
- solubility (mole fraction) (in methanol, 318.15 K): 0.0963
- solubility (mole fraction) (in methanol, 323.15 K): 0.122
- solubility (mole fraction) (in methyl acetate, 278.15 K): 0.00303
- solubility (mole fraction) (in methyl acetate, 283.15 K): 0.00406
- solubility (mole fraction) (in methyl acetate, 288.15 K): 0.00531
- solubility (mole fraction) (in methyl acetate, 293.15 K): 0.00688
- solubility (mole fraction) (in methyl acetate, 298.15 K): 0.0085
- solubility (mole fraction) (in methyl acetate, 303.15 K): 0.0112
- solubility (mole fraction) (in methyl acetate, 308.15 K): 0.0144
- solubility (mole fraction) (in methyl acetate, 313.15 K): 0.0191
- solubility (mole fraction) (in methyl acetate, 318.15 K): 0.0244
- solubility (mole fraction) (in methyl acetate, 323.15 K): 0.0306
- solubility (mole fraction) (in n-butanol, 278.15 K): 0.00518
- solubility (mole fraction) (in n-butanol, 283.15 K): 0.00676
- solubility (mole fraction) (in n-butanol, 288.15 K): 0.009
- solubility (mole fraction) (in n-butanol, 293.15 K): 0.0118
- solubility (mole fraction) (in n-butanol, 298.15 K): 0.0152
- solubility (mole fraction) (in n-butanol, 303.15 K): 0.0199
- solubility (mole fraction) (in n-butanol, 308.15 K): 0.0257
- solubility (mole fraction) (in n-butanol, 313.15 K): 0.0328
- solubility (mole fraction) (in n-butanol, 318.15 K): 0.0425
- solubility (mole fraction) (in n-butanol, 323.15 K): 0.0536
- solubility (mole fraction) (in n-hexanol, 278.15 K): 0.0038
- solubility (mole fraction) (in n-hexanol, 283.15 K): 0.00497
- solubility (mole fraction) (in n-hexanol, 288.15 K): 0.00679
- solubility (mole fraction) (in n-hexanol, 293.15 K): 0.00872
- solubility (mole fraction) (in n-hexanol, 298.15 K): 0.0114
- solubility (mole fraction) (in n-hexanol, 303.15 K): 0.0146
- solubility (mole fraction) (in n-hexanol, 308.15 K): 0.019
- solubility (mole fraction) (in n-hexanol, 313.15 K): 0.0244
- solubility (mole fraction) (in n-hexanol, 318.15 K): 0.0308
- solubility (mole fraction) (in n-hexanol, 323.15 K): 0.0393
- solubility (mole fraction) (in n-pentanol, 278.15 K): 0.00515
- solubility (mole fraction) (in n-pentanol, 283.15 K): 0.00671
- solubility (mole fraction) (in n-pentanol, 288.15 K): 0.00889
- solubility (mole fraction) (in n-pentanol, 293.15 K): 0.0114
- solubility (mole fraction) (in n-pentanol, 298.15 K): 0.0145
- solubility (mole fraction) (in n-pentanol, 303.15 K): 0.0184
- solubility (mole fraction) (in n-pentanol, 308.15 K): 0.0233
- solubility (mole fraction) (in n-pentanol, 313.15 K): 0.0291
- solubility (mole fraction) (in n-pentanol, 318.15 K): 0.0365
- solubility (mole fraction) (in n-pentanol, 323.15 K): 0.0444
- solubility (mole fraction) (in n-propanol, 278.15 K): 0.00602
- solubility (mole fraction) (in n-propanol, 283.15 K): 0.00792
- solubility (mole fraction) (in n-propanol, 288.15 K): 0.0108
- solubility (mole fraction) (in n-propanol, 293.15 K): 0.0147
- solubility (mole fraction) (in n-propanol, 298.15 K): 0.0197
- solubility (mole fraction) (in n-propanol, 303.15 K): 0.0254
- solubility (mole fraction) (in n-propanol, 308.15 K): 0.0329
- solubility (mole fraction) (in n-propanol, 313.15 K): 0.0418
- solubility (mole fraction) (in n-propanol, 318.15 K): 0.0538
- solubility (mole fraction) (in n-propanol, 323.15 K): 0.0701
